Laboratory results reported in ChEMBL document CHEMBL1201862, “PubChem BioAssay data set” (2004).
Active and inactive are the calls of the source.

How the values were obtained:
[1] = molecular target: Ras and Rab interactor 1/Tyrosine-protein kinase ABL1 (Homo sapiens, UniProt P00519+Q13671); type: functional;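 also: biochemical TR-FRET dose-response test measuring inhibition of binding between Rin1 and Abl proteins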
[2] = molecular target: Potassium voltage-gated channel subfamily KQT member 2 (Rattus norvegicus, UniProt O88943); assay: blockers of KCNQ2 channel current – cell-based, automated electrophysiology, set II, rat KCNQ2, dose response (AID 588637); type: functional
CHO = CHO cell viability loss, potency – luminescence, cytotoxicity control for TLR9-MyD88 binding inhibitor project, dose response (AID 588339); type: functional, cell-based, hamster; details: Cricetulus griseus;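 also: CHO cells stably coexpressing TLR9 and MyD88 fusions from primary screen; compound exposure lasted 48 hours before viability readout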
Beta Lactamase = Beta Lactamase (Pseudomonas aeruginosa, UniProt Q932Y6); assay: BLA reporter interference, concentration series – BLA reporter cells, FRET fluorescence, artefact control for TLR9-MyD88 binding inhibitor project, dose response (AID 588341); type: cell-based;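 also: cell based assay in CHO-K1 cells stably expressing beta-lactamase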
[3] = molecular target: T1, Type-1 angiotensin II receptor (Homo sapiens, UniProt P30556); assay: antagonism of angiotensin II type 1 receptor – cell-based, uHTS hits, selectivity assay for APJ receptor antagonist project, dose response (AID 463214); type: functional;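 also: antagonist potency against angiotensin II stimulated AT1 response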
T1 sequence (P30556 whole entry): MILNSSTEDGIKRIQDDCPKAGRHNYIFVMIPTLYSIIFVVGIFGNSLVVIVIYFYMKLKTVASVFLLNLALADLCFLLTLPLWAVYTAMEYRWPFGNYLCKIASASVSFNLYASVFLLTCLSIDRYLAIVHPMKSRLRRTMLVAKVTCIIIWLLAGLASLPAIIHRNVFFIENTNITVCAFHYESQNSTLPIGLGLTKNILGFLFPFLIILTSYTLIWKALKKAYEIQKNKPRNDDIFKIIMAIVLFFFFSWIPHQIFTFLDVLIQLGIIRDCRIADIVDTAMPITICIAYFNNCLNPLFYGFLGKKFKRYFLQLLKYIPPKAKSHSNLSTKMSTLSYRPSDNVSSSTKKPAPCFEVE

[4] = reduction of Shn3 3'UTR-driven luciferase in osteoblasts – cell-based, Clone20 osteoblasts, firefly luciferase, cherry-picked, dose response (AID 624132); type: functional;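 also: firefly luciferase luminescence from reporter carrying the Shn3 3'UTR in osteoblasts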
Protein RecA = molecular target: T2, Protein RecA (Mycobacterium tuberculosis, UniProt P9WHJ3); assay: Fluorescence Cell-Free Homogeneous Dose Retest to Identify Inhibitors of RecA-Intein Splicing Activity. [Related pubchem assays (depositor defined):AID2097, AID2223, AID489010, AID492950]; type: functional
T2 sequence (P9WHJ3 whole entry): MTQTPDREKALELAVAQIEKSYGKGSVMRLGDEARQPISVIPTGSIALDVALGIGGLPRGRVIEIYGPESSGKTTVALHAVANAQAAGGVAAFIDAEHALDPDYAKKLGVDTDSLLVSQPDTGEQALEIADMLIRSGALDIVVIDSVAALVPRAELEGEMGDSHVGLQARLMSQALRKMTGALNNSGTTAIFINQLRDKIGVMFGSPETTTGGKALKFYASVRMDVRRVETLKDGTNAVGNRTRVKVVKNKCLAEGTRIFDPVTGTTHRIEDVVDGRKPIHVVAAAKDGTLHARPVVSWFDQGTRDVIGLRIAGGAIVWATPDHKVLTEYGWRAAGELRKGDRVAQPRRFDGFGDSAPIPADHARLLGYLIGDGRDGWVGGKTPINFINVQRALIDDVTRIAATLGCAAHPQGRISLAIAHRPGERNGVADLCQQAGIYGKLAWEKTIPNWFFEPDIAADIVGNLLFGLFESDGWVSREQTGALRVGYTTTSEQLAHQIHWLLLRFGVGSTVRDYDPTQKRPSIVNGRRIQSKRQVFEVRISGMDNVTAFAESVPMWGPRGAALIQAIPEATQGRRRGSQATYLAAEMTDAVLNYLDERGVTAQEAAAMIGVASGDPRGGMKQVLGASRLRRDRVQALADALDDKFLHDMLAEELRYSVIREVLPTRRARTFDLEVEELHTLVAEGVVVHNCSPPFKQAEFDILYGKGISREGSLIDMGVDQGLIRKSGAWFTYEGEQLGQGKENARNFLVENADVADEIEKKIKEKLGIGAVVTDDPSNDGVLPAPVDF

[5] = molecular target: Glucose-6-phosphate 1-dehydrogenase (Homo sapiens, UniProt P11413); assay: inhibition of Homo sapiens G6PD, dose series – biochemical, fluorescence, selectivity assay for P. falciparum G6PD inhibitor project, dose response (AID 504792); type: functional
BJ [6] = assay: BJ-TERT-LT-ST fibroblast viability loss – cell-based, RAS-independent, luminescence, dose response (AID 1935); type: functional; details: Homo sapiens;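 also: BJ fibroblasts immortalized with TERT plus LT and ST oncogenes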
BJ [7] = assay: BJ-TERT fibroblast viability loss – cell-based, RAS-independent, luminescence, dose response (AID 1933); type: functional; details: Homo sapiens
[8] = non-specific 3'UTR reporter inhibition in Clone20-Shn3RL – cell-based, Renilla luciferase, cherry-picked, counter-screen for Shn3 inhibitor project, dose response (AID 624133); type: functional
[9] = viability loss in THP-1 monocytes – THP-1 cells, cytotoxicity control for Vif-APOBEC3G degradation inhibitor project, dose response (AID 1117359); type: functional; details: THP-1
[10] = molecular target: T3, Sentrin-specific protease 8 (Homo sapiens, UniProt Q96LD8); type: functional
T3 sequence (Q96LD8 whole entry): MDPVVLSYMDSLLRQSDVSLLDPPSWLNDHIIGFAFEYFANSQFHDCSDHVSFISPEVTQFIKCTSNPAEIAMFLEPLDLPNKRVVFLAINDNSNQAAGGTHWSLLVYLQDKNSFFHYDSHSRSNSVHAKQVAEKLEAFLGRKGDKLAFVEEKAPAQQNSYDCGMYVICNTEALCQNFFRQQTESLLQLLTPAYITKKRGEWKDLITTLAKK

[11] = molecular target: T3, Sentrin-specific protease 8; type: functional; remark: listed apart in the source
Fatty acid synthase [12] = molecular target: T4, Fatty acid synthase (Homo sapiens, UniProt P49327); assay: inhibition of human FAS-TE enzyme activity – biochemical, kinetic fluorescence intensity, dose response (AID 624326); type: functional;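 also: rate of fluorescence rise from hydrolysis of a fluorogenic O-methyl fluorescein ester substrate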
[13] = DRD fibroblast viability loss – cell-based, non-viral oncogenic, luminescence, dose response (AID 1934); type: functional; details: Homo sapiens
BJ [14] = assay: cells; type: functional, cell-based; details: Homo sapiens
[15] = Luminescence Cell-Based Dose Retest to Confirm Inhibitors of Cancer Stem Cells. [Related pubchem assays (depositor defined):AID2717, AID2721]; type: functional; details: Homo sapiens
[16] = loss of viability in HepG2 cells – cell-based, CellTiter-Glo, cherry-picked, cytotoxicity control for Shn3 inhibitor project, dose response (AID 624134); type: functional
[17] = molecular target: T5, Replicative DNA helicase DnaB (Mycobacterium tuberculosis, UniProt P9WMR3); assay: DnaB intein splicing inhibitors, dose response, biochemical, cell-free fluorescence (AID 449749); type: functional
T5 sequence (P9WMR3 whole entry): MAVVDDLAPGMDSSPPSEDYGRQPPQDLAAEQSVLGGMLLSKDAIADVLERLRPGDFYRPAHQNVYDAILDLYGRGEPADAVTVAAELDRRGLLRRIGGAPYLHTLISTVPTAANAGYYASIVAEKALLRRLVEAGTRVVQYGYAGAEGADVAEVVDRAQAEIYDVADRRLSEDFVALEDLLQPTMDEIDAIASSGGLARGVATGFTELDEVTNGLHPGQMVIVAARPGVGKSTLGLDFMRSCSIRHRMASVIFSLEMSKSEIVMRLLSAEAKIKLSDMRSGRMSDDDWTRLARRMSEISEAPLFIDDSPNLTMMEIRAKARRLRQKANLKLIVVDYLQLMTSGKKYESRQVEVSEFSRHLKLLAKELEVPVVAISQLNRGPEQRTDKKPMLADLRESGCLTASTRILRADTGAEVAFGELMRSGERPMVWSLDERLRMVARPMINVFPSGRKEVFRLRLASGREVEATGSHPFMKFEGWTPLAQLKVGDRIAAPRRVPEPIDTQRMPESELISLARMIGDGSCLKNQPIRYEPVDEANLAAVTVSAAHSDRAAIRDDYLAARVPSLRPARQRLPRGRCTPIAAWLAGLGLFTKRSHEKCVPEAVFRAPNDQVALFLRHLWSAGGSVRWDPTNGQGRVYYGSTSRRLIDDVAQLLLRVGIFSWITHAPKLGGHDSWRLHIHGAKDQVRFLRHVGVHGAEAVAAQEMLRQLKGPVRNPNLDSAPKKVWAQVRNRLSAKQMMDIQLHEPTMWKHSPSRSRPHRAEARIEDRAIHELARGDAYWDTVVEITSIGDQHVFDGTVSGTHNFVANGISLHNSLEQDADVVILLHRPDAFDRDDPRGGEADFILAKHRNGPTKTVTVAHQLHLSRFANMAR

Cytochrome P450 3A4 = Cytochrome P450 3A4 (Homo sapiens, UniProt P08684);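 also: CYP3A4 tested as one member of a cytochrome P450 panel screen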
Cytochrome P450 2D6 = Cytochrome P450 2D6 (Homo sapiens, UniProt P10635);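 also: CYP2D6 member of a cytochrome P450 panel assay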
Fatty acid synthase [18] = molecular target: T4, Fatty acid synthase; assay: inhibition of human FAS-TE enzyme activity – biochemical, endpoint fluorescence intensity, uHTS hits, dose response (AID 624327); type: functional;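 also: fluorescence from hydrolysis of an O-methyl fluorescein acyl ester substrate by the enzyme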
Beta-galactosidase = Beta-galactosidase (Escherichia coli, UniProt Q8VNN2); assay: PubChem AID 485352; type: functional
Beta-galactosidase, sequence (Q8VNN2 whole entry): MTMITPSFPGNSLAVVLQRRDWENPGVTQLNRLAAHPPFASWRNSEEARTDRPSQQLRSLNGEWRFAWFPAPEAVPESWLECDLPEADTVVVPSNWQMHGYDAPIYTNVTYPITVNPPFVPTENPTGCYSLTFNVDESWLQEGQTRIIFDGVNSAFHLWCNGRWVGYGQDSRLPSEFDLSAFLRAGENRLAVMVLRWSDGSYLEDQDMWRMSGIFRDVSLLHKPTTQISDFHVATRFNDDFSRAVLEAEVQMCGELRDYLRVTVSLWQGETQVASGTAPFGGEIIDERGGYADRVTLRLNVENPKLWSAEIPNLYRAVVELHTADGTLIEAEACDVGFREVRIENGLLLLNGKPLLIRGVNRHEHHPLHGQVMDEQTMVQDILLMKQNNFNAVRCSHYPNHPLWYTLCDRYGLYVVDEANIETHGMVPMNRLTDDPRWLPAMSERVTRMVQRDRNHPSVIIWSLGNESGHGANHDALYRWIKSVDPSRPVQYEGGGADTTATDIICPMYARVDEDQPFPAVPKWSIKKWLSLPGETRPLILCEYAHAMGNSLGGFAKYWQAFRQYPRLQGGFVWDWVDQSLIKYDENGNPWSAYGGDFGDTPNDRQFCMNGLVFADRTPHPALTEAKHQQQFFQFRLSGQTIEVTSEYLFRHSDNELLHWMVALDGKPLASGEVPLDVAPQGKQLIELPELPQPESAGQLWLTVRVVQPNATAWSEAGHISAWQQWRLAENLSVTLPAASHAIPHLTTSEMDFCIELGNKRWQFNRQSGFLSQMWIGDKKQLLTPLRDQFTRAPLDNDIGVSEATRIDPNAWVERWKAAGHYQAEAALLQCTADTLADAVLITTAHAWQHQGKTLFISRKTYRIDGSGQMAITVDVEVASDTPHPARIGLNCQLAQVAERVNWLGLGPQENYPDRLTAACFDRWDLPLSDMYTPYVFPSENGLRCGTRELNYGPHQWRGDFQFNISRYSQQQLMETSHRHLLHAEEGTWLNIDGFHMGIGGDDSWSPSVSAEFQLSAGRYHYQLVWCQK

T4 sequence (P49327 whole entry): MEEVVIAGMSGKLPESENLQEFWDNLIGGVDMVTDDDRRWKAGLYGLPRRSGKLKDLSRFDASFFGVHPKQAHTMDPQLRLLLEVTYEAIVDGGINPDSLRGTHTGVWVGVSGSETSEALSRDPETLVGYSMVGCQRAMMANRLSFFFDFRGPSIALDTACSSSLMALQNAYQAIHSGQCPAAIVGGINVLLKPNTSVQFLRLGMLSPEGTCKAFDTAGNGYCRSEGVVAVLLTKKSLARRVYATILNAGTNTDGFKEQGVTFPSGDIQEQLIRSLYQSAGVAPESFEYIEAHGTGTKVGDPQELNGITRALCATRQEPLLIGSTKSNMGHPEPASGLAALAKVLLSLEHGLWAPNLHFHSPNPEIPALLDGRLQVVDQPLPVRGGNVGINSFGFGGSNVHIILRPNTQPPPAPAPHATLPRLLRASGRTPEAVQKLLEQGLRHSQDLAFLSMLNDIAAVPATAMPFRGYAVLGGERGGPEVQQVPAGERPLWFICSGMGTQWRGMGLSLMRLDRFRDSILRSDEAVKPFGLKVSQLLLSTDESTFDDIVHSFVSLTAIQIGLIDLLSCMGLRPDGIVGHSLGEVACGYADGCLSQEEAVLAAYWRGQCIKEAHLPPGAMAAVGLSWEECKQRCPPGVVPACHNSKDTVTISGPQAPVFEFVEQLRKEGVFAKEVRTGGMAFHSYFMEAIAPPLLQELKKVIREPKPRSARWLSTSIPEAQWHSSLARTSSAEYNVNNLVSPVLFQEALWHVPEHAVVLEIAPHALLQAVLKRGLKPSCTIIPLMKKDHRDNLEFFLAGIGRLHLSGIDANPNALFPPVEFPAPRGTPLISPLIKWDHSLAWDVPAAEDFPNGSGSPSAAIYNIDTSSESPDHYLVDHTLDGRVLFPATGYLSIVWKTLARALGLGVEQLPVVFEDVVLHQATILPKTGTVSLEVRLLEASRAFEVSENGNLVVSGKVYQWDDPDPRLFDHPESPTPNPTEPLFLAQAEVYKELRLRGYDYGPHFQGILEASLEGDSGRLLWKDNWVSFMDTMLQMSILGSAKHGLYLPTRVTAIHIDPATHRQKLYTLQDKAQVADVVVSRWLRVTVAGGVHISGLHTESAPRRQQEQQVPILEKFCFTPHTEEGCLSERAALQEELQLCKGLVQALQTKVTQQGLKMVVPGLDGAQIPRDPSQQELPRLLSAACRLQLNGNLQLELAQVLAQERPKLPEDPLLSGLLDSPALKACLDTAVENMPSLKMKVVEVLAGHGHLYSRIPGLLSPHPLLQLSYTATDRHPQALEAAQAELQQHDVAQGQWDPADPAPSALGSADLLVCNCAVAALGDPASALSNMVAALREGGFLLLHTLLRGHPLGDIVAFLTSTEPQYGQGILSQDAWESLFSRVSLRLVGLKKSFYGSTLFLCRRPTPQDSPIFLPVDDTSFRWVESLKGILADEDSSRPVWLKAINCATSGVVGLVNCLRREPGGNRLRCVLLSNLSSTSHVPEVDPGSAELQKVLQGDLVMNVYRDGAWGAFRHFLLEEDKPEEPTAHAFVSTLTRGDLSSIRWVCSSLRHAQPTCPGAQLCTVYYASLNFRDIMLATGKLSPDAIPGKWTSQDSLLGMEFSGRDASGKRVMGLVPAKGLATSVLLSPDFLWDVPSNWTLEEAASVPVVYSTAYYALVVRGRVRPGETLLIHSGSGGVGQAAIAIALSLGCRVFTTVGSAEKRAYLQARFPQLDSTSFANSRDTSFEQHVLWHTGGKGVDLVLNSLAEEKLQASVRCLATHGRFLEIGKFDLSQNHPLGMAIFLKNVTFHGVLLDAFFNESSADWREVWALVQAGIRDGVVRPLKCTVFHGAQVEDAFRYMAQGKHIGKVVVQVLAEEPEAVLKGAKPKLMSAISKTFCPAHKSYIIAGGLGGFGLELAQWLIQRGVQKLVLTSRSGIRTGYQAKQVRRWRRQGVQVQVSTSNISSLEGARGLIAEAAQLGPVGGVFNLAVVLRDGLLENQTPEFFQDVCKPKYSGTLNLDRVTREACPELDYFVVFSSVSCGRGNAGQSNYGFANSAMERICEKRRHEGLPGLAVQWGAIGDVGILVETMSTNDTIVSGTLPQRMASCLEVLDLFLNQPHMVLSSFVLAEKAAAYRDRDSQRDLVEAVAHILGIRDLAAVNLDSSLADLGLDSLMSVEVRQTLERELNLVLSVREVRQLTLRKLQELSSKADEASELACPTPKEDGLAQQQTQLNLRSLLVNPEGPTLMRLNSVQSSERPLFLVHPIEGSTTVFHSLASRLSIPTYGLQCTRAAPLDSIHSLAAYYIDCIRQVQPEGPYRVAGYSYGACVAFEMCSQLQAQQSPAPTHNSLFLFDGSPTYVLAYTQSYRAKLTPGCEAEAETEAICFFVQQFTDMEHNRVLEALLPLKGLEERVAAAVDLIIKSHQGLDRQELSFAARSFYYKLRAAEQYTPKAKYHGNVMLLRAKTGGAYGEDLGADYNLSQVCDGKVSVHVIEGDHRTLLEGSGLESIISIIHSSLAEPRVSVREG
Cytochrome P450 2D6, sequence (P10635 whole entry): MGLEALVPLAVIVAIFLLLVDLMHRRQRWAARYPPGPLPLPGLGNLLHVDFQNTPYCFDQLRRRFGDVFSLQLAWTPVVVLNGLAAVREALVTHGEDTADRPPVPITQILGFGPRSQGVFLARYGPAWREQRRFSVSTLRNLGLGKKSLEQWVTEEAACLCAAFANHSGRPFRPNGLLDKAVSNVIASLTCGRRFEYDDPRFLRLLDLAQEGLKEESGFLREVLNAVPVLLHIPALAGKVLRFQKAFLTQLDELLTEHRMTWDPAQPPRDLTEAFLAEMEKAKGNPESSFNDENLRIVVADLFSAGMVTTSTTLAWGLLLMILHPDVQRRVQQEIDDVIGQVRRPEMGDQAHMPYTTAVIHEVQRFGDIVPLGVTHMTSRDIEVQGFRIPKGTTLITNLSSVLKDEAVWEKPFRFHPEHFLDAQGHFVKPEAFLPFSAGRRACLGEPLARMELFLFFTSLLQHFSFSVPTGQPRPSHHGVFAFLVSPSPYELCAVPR
Beta Lactamase, sequence (Q932Y6 whole entry): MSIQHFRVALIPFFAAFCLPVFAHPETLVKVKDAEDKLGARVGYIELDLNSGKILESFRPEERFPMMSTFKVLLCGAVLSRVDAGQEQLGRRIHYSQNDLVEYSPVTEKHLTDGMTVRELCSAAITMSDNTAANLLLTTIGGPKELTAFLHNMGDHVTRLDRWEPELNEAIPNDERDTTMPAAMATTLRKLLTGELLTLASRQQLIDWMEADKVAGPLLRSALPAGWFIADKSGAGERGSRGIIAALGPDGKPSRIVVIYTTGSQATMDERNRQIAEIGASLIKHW
Cytochrome P450 3A4, sequence (P08684 whole entry): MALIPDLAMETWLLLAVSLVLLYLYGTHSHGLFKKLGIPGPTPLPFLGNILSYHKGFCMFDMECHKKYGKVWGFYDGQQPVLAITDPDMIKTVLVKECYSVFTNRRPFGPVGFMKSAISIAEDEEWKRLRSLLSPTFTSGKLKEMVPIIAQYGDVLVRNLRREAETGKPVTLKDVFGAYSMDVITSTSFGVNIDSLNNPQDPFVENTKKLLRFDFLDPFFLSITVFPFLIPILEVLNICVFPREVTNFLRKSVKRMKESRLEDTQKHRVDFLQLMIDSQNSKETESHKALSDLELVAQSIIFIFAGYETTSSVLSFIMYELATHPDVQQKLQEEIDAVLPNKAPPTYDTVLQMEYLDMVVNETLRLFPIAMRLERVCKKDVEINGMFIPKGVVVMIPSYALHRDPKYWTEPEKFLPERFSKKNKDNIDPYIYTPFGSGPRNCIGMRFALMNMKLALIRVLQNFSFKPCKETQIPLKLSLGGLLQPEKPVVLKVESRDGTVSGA

CC1(c2nnc(-c3ccncc3)o2)CC(c2ccc(F)cc2)=NO1 (centres undefined)
IC50 [1]: 10.8 µM (inactive)

Cc1ccc(-c2cc(C(=O)N3CC(C)OC(C)C3)c3ccccc3n2)o1 (centres undefined)
IC50 [2]: 0.61 µM (active)

CN(CCO)c1cc(Sc2nc3ccccc3s2)c2nonc2c1[N+](=O)[O-]
IC50 (CHO): 1.69 µM (active) | IC50 (Beta Lactamase): 8.89 µM (active) | IC50 [3]: 2.08 µM (active) | AC50 [4]: 1.55 µM (active) | EC50 (Protein RecA): 0.49 µM (active) | IC50 [5]: > 80 µM (inactive) | EC50 (BJ [6]): 4.95 µM (inconclusive) | EC50 (BJ [7]): 1.96 µM (active) | AC50 [8]: 8.18 µM (active) | CC50 [9]: > 40 µM (active) | IC50 [10]: 28.1 µM (active) | IC50 [11]: 18.8 µM (active) | IC50 (Fatty acid synthase [12]): 2.14 µM (active) | EC50 [13]: 5.92 µM (active) | EC50 (BJ [14]): 4.12 µM (active) | AC50 [15]: 1.62 µM (active) | AC50 [16]: 29.3 µM (active) | AC50 [17]: 1.26 µM (active) | AC50 (Cytochrome P450 3A4): 22.4 µM (inconclusive) | AC50 (Cytochrome P450 2D6): 22.4 µM (inconclusive) | IC50 (Fatty acid synthase [18]): 2.32 µM (active) | EC50 (Beta-galactosidase): > 40 µM (inactive)
